{"source": "paper PMC7782499", "about": "“Progerinin, an optimized progerin-lamin A binding inhibitor, ameliorates premature senescence phenotypes of Hutchinson-Gilford progeria syndrome” (Communications Biology, 2021)", "key": {"HGPS cells": {"test_system": "HGPS cells", "assay": "Ki67-positive cells in HGPS cells", "format": "cell-based, human", "conditions": "for Ki67 positive cells/total cells: AG03199; for Ki67 positive cells/total cells (ratio): AG11498, 3 days", "experimental": "A. In vivo pharmacokinetic (PK) analysis of JH010 (performed in rats). […] B Effect of SLC-D011 on human ERG (hERG). […] C In vivo pharmacokinetic analysis of SLD-D011. […] HEK293 cells transiently transfected with GFP-PG vectors were treated with SLC-D011 for 24 hr (n = 3 independent experiment; two-tailed Student’s t test). […] “Con” means dimethyl sulfoxide (DMSO)-treated control.\nCells were cultured on coverslips, washed with PBS, fixed with 4% paraformaldehyde (PFA) for 30 min at RT, and then permeabilized with 0.2% Triton X-100 at RT for 5 min. After treatment with blocking solution (anti-Human antibody diluted 1:400 in PBS) for 1 h, cells were incubated with anti-lamin A/C (1:400), anti-progerin (1:100), Ki67 (1:200), and anti-H3K9me3 (1:200) in blocking buffer overnight at 4 °C. Finally, cells were incubated with fluorescein isothiocyanate and rhodamine-conjugated secondary antibodies at 4 °C for 7 h. Nuclei were stained with DAPI (4, 6-diamidino-2-phenylindole) at RT for 10 min. After cells were washed three times with PBS, coverslips were mounted with mounting solution (H-5501; Vector Laboratories, Burlingame, CA, USA). Immunofluorescence signal was detected with a fluorescence microscopy (Zeiss and Logos).\nHGPS cells were treated with SLC-D011 at a low concentration ( from 10\nnM to 5μM) for 3 days. C. […]\n[…] DAPI indicated DNA."}, "Lmna G609G/+ mouse": {"test_system": "Lmna G609G/+ mouse", "assay": "Radiological examination (kyphosis index, incisors)", "format": "in vivo", "conditions": "Lmna G609G/+ mice", "experimental": "The radiographic study was performed in anaesthetized living mice using a human radiographic system (College of Veterinary Medicine, Gyeongsang National University, Korea). A single radiograph of right lateral view of the whole body was obtained. Age-matched (at 41 weeks old) Lmna^+/+ mice, untreated Lamn^G609G/+ mice, and progerinin-treated Lmna^G609G/+ mice were radiographed. The images were recorded in DICOM format and then transferred to a personal computer. KI[28],[30] and abnormalities of the incisors were evaluated. Data processing and analysis were performed using a RadiAnt DICOM system in Institute of Animal Medicine, College of Veterinary Medicine, Gyeongsang National University (Jinju, Korea). […]\nLmnaG609G transgenic mice at 41 weeks of age. Abundant adipose tissues are present in abdomens of\nLmna+/+ and progerin- treated LmnaG609G/+ mice compared to untreated LmnaG609G/+ mice. Kyphosis Index\n(KI) index was accessed after 8-week treatment.\nuntreated LmnaG609G/+, and D011- treated LmnaG609G/+ mice at 41 weeks of age (unpaired t-test), *p < 0.05.\nSeverity of kyphosis depends on genotype and treatment of SLC-D011. H. Gross morphology of age-"}}, "note": "Where “and” joins values, the source holds several entries; their conditions need not be identical. Identical values can stand only once."}
{"smiles": "CC1(C)Oc2cc3oc(=O)ccc3cc2C[C@@H]1OC/C=C/c1ccccc1", "note": "[SLC-D011]", "values": [{"measurement": "Ki67 positive cells/total cells", "setting": "HGPS cells; 10nM, Ave", "value": 0.1497, "unit": "ratio"}, {"measurement": "Ki67 positive cells/total cells", "setting": "HGPS cells; 10nM, individual replicate", "value": "0.0625 ratio and 0.2083 ratio and 0.1538 ratio and 0.1646 ratio and 0.1594 ratio"}, {"measurement": "Ki67 positive cells/total cells", "setting": "HGPS cells; 50nM, Ave", "value": 0.369, "unit": "ratio"}, {"measurement": "Ki67 positive cells/total cells", "setting": "HGPS cells; 50nM, individual replicate", "value": "0.2857 ratio and 0.375 ratio and 0.4444 ratio and 0.5 ratio and 0.24 ratio"}, {"measurement": "Ki67 positive cells/total cells", "setting": "HGPS cells; 100nM, Ave", "value": 0.418, "unit": "ratio"}, {"measurement": "Ki67 positive cells/total cells", "setting": "HGPS cells; 100nM, individual replicate", "value": "0.275 ratio and 0.3214 ratio and 0.4286 ratio and 0.44 ratio and 0.625 ratio"}, {"measurement": "Ki67 positive cells/total cells", "setting": "HGPS cells; 500nM, Ave", "value": 0.45, "unit": "ratio"}, {"measurement": "Ki67 positive cells/total cells", "setting": "HGPS cells; 500nM, individual replicate", "value": "0.3889 ratio and 0.5 ratio and 0.5714 ratio and 0.3684 ratio and 0.4211 ratio"}, {"measurement": "Ki67 positive cells/total cells", "setting": "HGPS cells; 1μM, Ave", "value": 0.4556, "unit": "ratio"}, {"measurement": "Ki67 positive cells/total cells", "setting": "HGPS cells; 1μM, individual replicate", "value": "0.4146 ratio and 0.4286 ratio and 0.5 ratio and 0.4792 ratio"}, {"measurement": "Ki67 positive cells/total cells", "setting": "HGPS cells; 2μM, Ave", "value": 0.479, "unit": "ratio"}, {"measurement": "Ki67 positive cells/total cells", "setting": "HGPS cells; 2μM, individual replicate", "value": "0.5 ratio (2×) and 0.44 ratio and 0.4762 ratio"}, {"measurement": "Ki67 positive cells/total cells", "setting": "HGPS cells; 5μM, Ave", "value": 0.4663, "unit": "ratio"}, {"measurement": "Ki67 positive cells/total cells", "setting": "HGPS cells; 5μM, individual replicate", "value": "0.3571 ratio and 0.2857 ratio and 0.75 ratio and 0.5909 ratio and 0.3478 ratio"}, {"measurement": "Ki67 positive cells/total cells (ratio)", "setting": "HGPS cells; 10nM", "value": "0.25 and 0.2222 and 0.2143 and 0.3"}, {"measurement": "Ki67 positive cells/total cells (ratio)", "setting": "HGPS cells; 10nM, mean", "value": 0.2466}, {"measurement": "Ki67 positive cells/total cells (ratio)", "setting": "HGPS cells; 50nM", "value": "0.2857 and 0.3333 and 0.375 and 0.2"}, {"measurement": "Ki67 positive cells/total cells (ratio)", "setting": "HGPS cells; 50nM, mean", "value": 0.2985}, {"measurement": "Ki67 positive cells/total cells (ratio)", "setting": "HGPS cells; 100nM", "value": "0.3333 and 0.3125 and 0.4 and 0.375"}, {"measurement": "Ki67 positive cells/total cells (ratio)", "setting": "HGPS cells; 100nM, mean", "value": 0.3552}, {"measurement": "Ki67 positive cells/total cells (ratio)", "setting": "HGPS cells; 500nM", "value": "0.375 and 0.4444 and 0.4286"}, {"measurement": "Ki67 positive cells/total cells (ratio)", "setting": "HGPS cells; 500nM, mean", "value": 0.4058}, {"measurement": "Ki67 positive cells/total cells (ratio)", "setting": "HGPS cells; 1μM", "value": "0.3333 and 0.4 and 0.6 and 0.375"}, {"measurement": "Ki67 positive cells/total cells (ratio)", "setting": "HGPS cells; 1μM, mean", "value": 0.4271}, {"measurement": "Ki67 positive cells/total cells (ratio)", "setting": "HGPS cells; 2μM", "value": "0.4 and 0.375 and 0.4167"}, {"measurement": "Ki67 positive cells/total cells (ratio)", "setting": "HGPS cells; 2μM, mean", "value": 0.3979}, {"measurement": "Concentration enough for inducing Ki67 expression", "setting": "HGPS cells; HGPS cells", "value": 100, "unit": "nM"}, {"measurement": "Abnormalities of incisors", "setting": "Lmna G609G/+ mouse; 41 weeks of age", "value": "ameliorated these abnormalities"}, {"measurement": "Kyphosis index (KI)", "setting": "Lmna G609G/+ mouse; 41 weeks of age", "value": "recovered"}, {"measurement": "Kyphosis index", "setting": "Lmna G609G/+ mouse; Ave", "value": 4.2583}, {"measurement": "Kyphosis index", "setting": "Lmna G609G/+ mouse; individual mouse", "value": "3.759 and 3.649 and 5.045 and 4.58"}]}
